Patent US20260265251A1 (priority 2023, published 2026)

Columns and labels:
SK-MEL-3 cells = assay: SK-MEL-3 cell proliferation assay; format: cell-based; settings: Homo sapiens, SK-MEL3; SK-MEL-3 cells, 72 hours, CellTiter-Glo; read-out: SK-MEL-3 IC50
A2058 cells = assay: A2058 cell proliferation assay; format: cell-based; settings: Homo sapiens, 96 hours, CellTiter-Glo

O=c1[nH]c2cc3c(nc2[nH]1)CC[C@H](c1cnn(C(F)F)c1Cl)C3 (single isomer, unassigned) [Example 64-A, (*S)-7-(5-chloro-1-(difluoromethyl)-1H-pyrazol-4-yl)-1,3,5,6,7,8-hexahdro-2H-imidazo[4,5-b]quinolin-2-one]
IC50 (SK-MEL-3 cells): 0.04 nM
IC50 (A2058 cells): 0.29 nM

O=c1[nH]c2cc3c(nc2[nH]1)CCN(c1cccc(C(F)(F)F)n1)C3 [Example 58, 7-(6-(trifluoromethyl)pyridin-2-yl)-1,3,5,6,7,8-hexahydro-2H-imidazo[4,5-b][1,6]naphthyridin-2-one]
IC50 (SK-MEL-3 cells): 0.3 nM
IC50 (A2058 cells): 1.2 nM

O=c1[nH]c2cc3cc(-c4cnn(C(F)F)c4Cl)ccc3nc2[nH]1 [Example 13, 7-(5-chloro-1-(difluoromethyl)-1H-pyrazol-4-yl)-1,3-dihydro-2H-imidazo[4,5-b]quinolin-2-one]
IC50 (SK-MEL-3 cells): 0.03 nM
IC50 (A2058 cells): 0.1 nM

O=c1[nH]c2cc3c(nc2[nH]1)CCN(c1cnn(C(F)F)c1Cl)C3 [Example 50, 7-(5-chloro-1-(difluoromethyl)-1H-pyrazol-4-yl)-1,3,5,6,7,8-hexahydro-2H-imidazo[4,5-b][1,6]naphthyridin-2-one]
IC50 (SK-MEL-3 cells): 1.2 nM
IC50 (A2058 cells): 7.5 nM

[2H]C([2H])([2H])Oc1ccc(-c2ccc3nc4[nH]c(=O)[nH]c4cc3c2)c(Cl)n1 [Example 27, 7-(2-chloro-6-(methoxy-d3)pyridin-3-yl)-1,3-dihydro-2H-imidazo[4,5-b]quinolin-2-one]
IC50 (SK-MEL-3 cells): 3.1 nM
IC50 (A2058 cells): 20.2 nM

O=c1[nH]c2cc3cc(-c4ccc(C(F)F)cc4Cl)ccc3nc2[nH]1 [Example 36, 7-(2-chloro-4-(difluoromethyl)phenyl)-1,3-dihydro-2H-imidazo[4,5-b]quinolin-2-one]
IC50 (SK-MEL-3 cells): 0.9 nM
IC50 (A2058 cells): 5.2 nM

O=c1[nH]c2cc3c(nc2[nH]1)CCC(c1cnn(C(F)F)c1Cl)C3 (racemic) [Example 64, 7-(5-chloro-1-(difluoromethyl)-1H-pyrazol-4-yl)-1,3,5,6,7,8-hexahydro-2H-imidazo[4,5-b]quinolin-2-one]
IC50 (SK-MEL-3 cells): 0.08 nM
IC50 (A2058 cells): 0.4 nM

O=c1[nH]c2cc3cc(-c4ccc(C(F)(F)F)nc4Cl)ccc3nc2[nH]1 [Example 17, 7-(2-chloro-6-(trifluoromethyl)pyridin-3-yl)-1,3-dihydro-2H-imidazo[4,5-b]quinolin-2-one]
IC50 (SK-MEL-3 cells): 1.1 nM
IC50 (A2058 cells): 11 nM

Cc1c(-c2ccc3nc4[nH]c(=O)[nH]c4cc3c2)cnn1C(F)F [Example 44, 7-(1-(difluoromethyl)-5-methyl-1H-pyrazol-4-yl)-1,3-dihydro-2H-imidazo[4,5-b]quinolin-2-one]
IC50 (SK-MEL-3 cells): 0.07 nM
IC50 (A2058 cells): 0.17 nM

O=c1[nH]c2cc3cc(-c4nn(C(F)F)cc4Cl)ccc3nc2[nH]1 [Example 15, 7-(4-chloro-1-(difluoromethyl)-1H-pyrazol-3-yl)-1,3-dihydro-2H-imidazo[4,5-b]quinolin-2-one]
IC50 (SK-MEL-3 cells): 0.7 nM
IC50 (A2058 cells): 3.9 nM

O=c1[nH]c2cc3cc(-c4ccc(C(F)F)nc4Cl)ccc3nc2[nH]1 [Example 35, 7-(2-chloro-6-(difluoromethyl)pyridin-3-yl)-1,3-dihydro-2H-imidazo[4,5-b]quinolin-2-one]
IC50 (SK-MEL-3 cells): 0.6 nM
IC50 (A2058 cells): 5.2 nM

O=c1[nH]c2cc3c(Cl)c(-c4cnn(C(F)F)c4Cl)ccc3nc2[nH]1 [Example 86, 8-chloro-7-(5-chloro-1-(difluoromethyl)-1H-pyrazol-4-yl)-1,3-dihydro-2H-imidazo[4,5-b]quinolin-2-one]
IC50 (SK-MEL-3 cells): 0.09 nM
IC50 (A2058 cells): 0.9 nM

O=c1[nH]c2cc3cc(-c4cnn(C(F)F)c4C(F)(F)F)ccc3nc2[nH]1 [Example 30, 7-(1-(difluoromethyl)-5-(trifluoromethyl)-1H-pyrazol-4-yl)-1,3-dihydro-2H-imidazo[4,5-b]quinolin-2-one]
IC50 (SK-MEL-3 cells): 0.1 nM
IC50 (A2058 cells): 0.9 nM

O=c1[nH]c2cc3cc(-c4onc(C(F)F)c4Cl)ccc3nc2[nH]1 [Example 34, 7-(4-chloro-3-(difluoromethyl)isoxazol-5-yl)-1,3-dihydro-2H-imidazo[4,5-b]quinolin-2-one]
IC50 (SK-MEL-3 cells): 0.09 nM
IC50 (A2058 cells): 0.19 nM

N#Cc1ccc(-c2ccc3nc4[nH]c(=O)[nH]c4cc3c2)c(Cl)c1 [Example 14, 7-(2-chloro-4-cyanophenyl)-1,3-dihydro-2H-imidazo[4,5-b]quinolin-2-one]
IC50 (SK-MEL-3 cells): 0.3 nM
IC50 (A2058 cells): 1.1 nM

O=c1[nH]c2cc3cc(-c4ccc(F)cc4Cl)ccc3nc2[nH]1 [Example 3, 7-(2-chloro-4-fluorophenyl)-1,3-dihydro-2H-imidazo[4,5-b]quinolin-2-one]
IC50 (SK-MEL-3 cells): 0.5 nM
IC50 (A2058 cells): 1.2 nM

O=c1[nH]c2cc3c(nc2[nH]1)CCN(c1ccc(C(F)(F)F)nc1Cl)C3 [Example 48, 7-(2-chloro-6-(trifluoromethyl)pyridin-3-yl)-1,3,5,6,7,8-hexahydro-2H-imidazo[4,5-b][1,6]naphthyridin-2-one]
IC50 (SK-MEL-3 cells): 5.2 nM
IC50 (A2058 cells): 74.6 nM

O=c1[nH]c2cc3c(nc2[nH]1)CCN(c1ccc(F)cc1Cl)C3 [Example 21, 7-(2-chloro-4-fluorophenyl)-1,3,5,6,7,8-hexahydro-2H-imidazo[4,5-b][1,6]naphthyridin-2-one]
IC50 (SK-MEL-3 cells): 4.5 nM
IC50 (A2058 cells): 38.4 nM

O=c1[nH]c2cc3cc(-c4cnn(C(F)F)c4Br)ccc3nc2[nH]1 [Example 32, 7-(5-bromo-1-(difluoromethyl)-1H-pyrazol-4-yl)-1,3-dihydro-2H-imidazo[4,5-b]quinolin-2-one]
IC50 (SK-MEL-3 cells): 0.05 nM
IC50 (A2058 cells): 0.3 nM

N#Cc1ccc(N2CCc3nc4[nH]c(=O)[nH]c4cc3C2)c(Cl)c1 [Example 22, 7-(2-chloro-4-cyanophenyl)-1,3,5,6,7,8-hexahydro-2H-imidazo[4,5-b][1,6]naphthyridin-2-one]
IC50 (SK-MEL-3 cells): 1.6 nM
IC50 (A2058 cells): 11.9 nM

O=c1[nH]c2cc3c(nc2[nH]1)CCN(c1ncc(F)cc1Cl)C3 [Example 23, 7-(3-chloro-5-fluoropyridin-2-yl)-1,3,6,7,8-hexahydro-2H-imidazo[4,5-b][1,6]naphthyridin-2-one]
IC50 (SK-MEL-3 cells): 4.4 nM
IC50 (A2058 cells): 44.8 nM

O=c1[nH]c2cc3c(nc2[nH]1)CC[C@@H](c1cnn(C(F)F)c1Cl)C3 (single isomer, unassigned) [Example 64-B, (*R)-7-(5-chloro-1-(difluoromethyl)-1H-pyrazol-4-yl)-1,3,5,6,7,8-hexahydro-2H-imidazo[4,5-b]quinolin-2-one]
IC50 (SK-MEL-3 cells): 0.5 nM
IC50 (A2058 cells): 1.79 nM

O=c1[nH]c2cc3c(Cl)c(-c4ccc(F)cn4)ccc3nc2[nH]1 [Example 24, 8-chloro-7-(5-fluoropyridin-2-yl)-1,3-dihydro-2H-imidazo[4,5-b]quinolin-2-one]
IC50 (SK-MEL-3 cells): 0.9 nM
IC50 (A2058 cells): 2.7 nM

[2H]C([2H])([2H])Oc1nc(Cl)ccc1-c1ccc2nc3[nH]c(=O)[nH]c3cc2c1 [Example 28, 7-(6-chloro-2-(methoxy-d3)pyridin-3-yl)-1,3-dihydro-2H-imidazo[4,5-b]quinolin-2-one]
IC50 (SK-MEL-3 cells): 1.1 nM
IC50 (A2058 cells): 7.9 nM
